# Experimental data taken from patent US9637460B2, “Isotopically enriched arylsulfonamide CCR3 antagonists” (Axikin Pharmaceuticals, Inc., priority 2012, dated 2017).
# Read-outs that look alike come from different tables or passages of the source.
# Assays:
# [1] = Pharmacokinetic studies in rats; conditions: rat, in vivo, 3 mg/kg, 3 mg/kg in EtOH/Solutol/H2O formulation
# Description: Pharmacokinetic properties of 4-(3,5-dichloro-2,4,6-trideuteriumphenoxy)-3-(3-oxo-piperazine-1-sulfonyl)-2,5,6-trideuteriumbenzonitrile 36 and 4-(3,5-dichlorophenoxy)-3-(3-oxo-piperazine-1-sulfonyl)benzonitrile C1 were determined using rats. Animals were randomized into two groups, each having 3 rats. 4-(3,5-Dichloro-2,4,6-trideuteriumphenoxy)-3-(3-oxo-piperazine-1-sulfonyl)-2,5,6-trideuteriumbenzonitrile 36 and 4-(3,5-dichlorophenoxy)-3-(3-oxo-piperazine-1-sulfonyl)benzonitrile C1 were administered at 3 mg/kg in EtOH/Solutol/H2O formulations. Pharmacokinetic parameters of 4-(3,5-dichloro-2,4,6-trideuteriumphenoxy)-3-(3-oxo-piperazine-1-sulfonyl)-2,5,6-trideuteriumbenzonitrile 36 and 4-(3,5-dichlorophenoxy)-3-(3-oxo-piperazine-1-sulfonyl)benzonitrile C1 are summarized in Table 2. 4-(3,5-dichlorophenoxy)-3-(3-oxo-piperazine-1-sulfonyl)benzonitrile C1 was synthesized according to the procedure as described in U.S. Pat. App. Pub. No.: US 2011/0218207, the disclosure of which is incorporated herein by reference in its entirety.
Compound,melting point [°C],Cmax ([1]; Rat 1) [ng/mL],Tmax ([1]; Rat 1) [h],half-life ([1]; Rat 1) [h],"AUC ([1]; Rat 1, read-out: AUC) [ng·h/mL]","AUC ([1]; Rat 1, read-out: AUCnorm) [ng·h/mL]",Cmax ([1]; Rat 2) [ng/mL],Tmax ([1]; Rat 2) [h],half-life ([1]; Rat 2) [h],"AUC ([1]; Rat 2, read-out: AUC) [ng·h/mL]","AUC ([1]; Rat 2, read-out: AUCnorm) [ng·h/mL]",Cmax ([1]; Rat 3) [ng/mL],Tmax ([1]; Rat 3) [h],half-life ([1]; Rat 3) [h],"AUC ([1]; Rat 3, read-out: AUC) [ng·h/mL]","AUC ([1]; Rat 3, read-out: AUCnorm) [ng·h/mL]"
"[2H]c1c(Cl)c([2H])c(Oc2c([2H])c([2H])c(C#N)c([2H])c2S(=O)(=O)N2CCNC(=O)C2)c([2H])c1Cl [Compound 36, 4-(3,5-dichloro-2,4,6-trideuteriumphenoxy)-3-(3-oxo-piperazine-1-sulfonyl)-2,5,6-trideuteriumbenzonitrile]",207 to 210,166,2,3.3,820,273,46.3,4,1.12,272,90.6,128,0.3,1.51,490,163
"N#Cc1ccc(Oc2cc(Cl)cc(Cl)c2)c(S(=O)(=O)N2CCNC(=O)C2)c1 [Compound C1, 4-(3,5-dichlorophenoxy)-3-(3-oxo-piperazine-1-sulfonyl)benzonitrile, reference compound]",–,34.4,2,5.52,200,66.6,65.8,4,3.72,450,150,59.9,2,4.04,317,106
